Laboratory results taken from patent US6790650B2, “Cacao endoproteinases and production of cocoa flavor from same” (Nestec S.A., priority 2000, dated 2004).
Square brackets hold non-standard residues; d marks the D form. Peptide text beside a SMILES is read from it. * marks the point of attachment. Sta = CC(C)C[C@H](N)[C@@H](O)CC(=O)O; Isovaleryl = CC(C)CC(=O)*

Columns and labels:
[1] = test system: native aspartic endoproteinase (TcAP2), size exclusion purified pool #57-64; test: Inhibitor sensitivity of the native purified aspartic endoproteinase (bovine hemoglobin hydrolysis, OPA read-out); assay type: biochemical, Theobroma cacao; conditions: for Remaining Activity %: pH 3, 10 mg/ml bovine hemoglobin, pepstatin A 0.002 mM, 1,10 phenanthroline 2.0 mM, E-64 0.01 mM, DCI 0.1 mM, two replicates
Description: (§1) Aspartic endoproteinase activity was assayed at 42° C. in a 900 μl reaction medium containing 0.2M sodium citrate buffer pH3.0, 10 mg/ml bovine haemoglobin and 150 μl yeast culture supernatant. To stop the reaction aliquots (80 μl) were added to an equal volume of TCA 8% and the precipitated protein removed by centrifugation at 13000 g. 20 μl supernatant were mixed to 250 μl O-phthaldialdehyde (OPA) reagent (50 mM sodium tetraborate, 1% SDS, 5.96 mM OPA (dissolved in 1 ml methanol) and 1.43 mM β-mercaptoethanol. Activity was then determined measuring OD at 340 nm and expressed in pmole leucine produced per mg protein. For this, we use the following linear equation (OD340 nm=0.0156 pmoles+0.0088), which was determined using a standard curve with L-leucine (0 to 80 pmoles). Protein concentration was determined by Bradford assay (Biorad).
The inhibitor sensitivity of the native aspartic endoproteinase was determined in 300 μl reactions containing 200 mM sodium citrate, pH 3, 10 mg/ml bovine hemoglobin, and 5 μl of size exclusion purified pool #57-64 (2.4 μg protein/μl). The inhibitors were added to give a final concentration of 2 μM pepstatin, 2 mM 1,10 phenanthroline, 100 μM dichloroisocoumarin (DCI), 10 μM E-64. The enzyme activity was determined as described in example 5.

[2] = test system: recombinant TcAP2; test: Effect of inhibitors on hydrolysis of bovine haemoglobin by recombinant TcAP2; assay type: biochemical, Theobroma cacao; conditions: 2 μM pepstatin; for Effect on endoprotease activity of recombinant TcAP2: pH 3, 2 mM 1.10 phenanthroline, 100 μM DCI, 10 μM E64
Description: Inhibitors were added in the reaction at final concentration of 2 mM for 1.10 phenanthroline, 100 μM DCI, 10 μM E64 and 2 μM pepstatin. Activity at pH 3 without inhibitor was taken as 100% and correspond to 28.8±3.8 pmoles L-leucine produced/min/mg protein. Data are means of 3 measurements±SD;
as §1
The pepstatin insensitive activity (1.91±1.26 pmoles L-leucine/min/mg protein, 6.65%) is in the same range as that one measured for the control strain (2.26±1.26 pmoles L-leucine/min/mg protein, 7.8%). Other inhibitors such as 1.10 phenanthroline (metallo proteases), DCI (serine proteases) and E64 (cysteine proteases) have no effect on TcAP2 activity (FIG. 12).

[3] = test system: carboxypeptidase activity; conditions: cited from earlier work
[4] = test system: aspartic endoproteinase activity; conditions: activity optimal at pH 3.5; cited from earlier work
[5] = test system: bovine haemoglobin; test: Aspartic endoproteinase activity of recombinant TcAP2 in yeast culture supernatant; assay type: biochemical
Description: Small patches of cells were streaked on YPD agar plates and grown overnight at 28° C. The thin layers of grown cells were used to inoculate 50 ml DMI medium in 500 ml Erlenmeyers with 4 lateral baffles. DMI medium contains per liter: KH2PO4, 10 g; MgSO4,7H2O, 2.5 g; glucose, 20 g; Trace elements solution, 5.1 ml; Vitamins solution, 17 ml; urea, 3 g. Urea was dissolved in 15 ml water and sterile filtered. The initial pH of the medium was adjusted to 5.0. The cultures were shaken at 140 rpm on a rotary shaker at 28° C. for three days. Aliquots of the cultures were centrifuged at maximum speed (3000 g) for 15 min. and the supernatant used for the determination of the aspartic endoproteinase activity.
as §1

Row | Remaining Activity % [1] [%] | Molecule | Effect on endoprotease activity of recombinant TcAP2 [2] | other results
1 | 86 | c1cnc2c(c1)ccc1cccnc12 [1,10 Phenanthroline, 1,10 phenanthroline] | no effect | 
2 | 88 | CC(C)C[C@H](NC(=O)[C@H]1O[C@@H]1C(=O)O)C(=O)NCCCCN=C(N)N [E-64] | no effect | 
3 |  | O=S(=O)(F)Cc1ccccc1 [PMSF] |  | Inhibition of carboxypeptidase activity [3]: inhibited
4 | 0 | CC(C)CC(=O)N[C@H](C(=O)N[C@H](C(=O)N[C@@H](CC(C)C)[C@@H](O)CC(=O)N[C@@H](C)C(=O)N[C@@H](CC(C)C)[C@@H](O)CC(=O)O)C(C)C)C(C)C [Pepstatin A] (Isovaleryl-VV[Sta]A[Sta]-OH) | completely inhibited | Inhibition of aspartic endoproteinase activity [4]: inhibited; Inhibition of the purified native protease activity ([1]; 2 μM pepstatin, pH 3): inhibits completely; Pepstatin insensitive activity ([2]; medium of pCY330-33, pH 3): 1.91±1.26 pmoles L-leucine/min/mg protein; Pepstatin insensitive activity, % of activity without inhibitor ([2]; activity at pH 3 without inhibitor taken as 100%): 6.65%
5 |  | TcAP2: aspartic endoproteinase from Theobroma cacao bean (clone CCN51), 514 amino acids; recombinant form secreted by Yarrowia lipolytica clone pCY330-33 (protein) MGTTIKVVVLSLFISSLLFSVVSSVSNDGLVRIGLKKMKLDPNNRLAARLDSKDGEALRAFIKKYRFRNNLGDSEETDIVALKNYMDAQYYGEIGIGTPTQKFTVIFDTGSSNLWVSSTKCYFSVACYFHEKYKASDSSTYKKDGKPASIQYGTGAISGFFSYDHVQVGDLVVKDQEFIEATKEPGLTFMVAKFDGILGLGFKEISVGDAVPVWYNMIKQGLIKEPVFSFWLNRNVDEEAGGEIVFGGVDPNHYKGKHTYVPVTQKGYWQFDMGDVLIADKPTGYCAGSCAAIADSGTSLLAGPSTVITMINHAIGATGVVSQECKAVVQQYGRTIIDLLIAEAQPQKICSQIGLCTFNGAHGVSTGIESVVDESNGKSSGVLRDAMCPACEMAVVWMQNQVRQNQTQDRILSYVNELCDRVPNPMGESAVDCGSLSSMPTISFTIGGKVFDLTPEEYILKVGEGSEAQCISGFTALDIPPPRGPLWILGDIFMGRYHTVFDFGKLRVGFAEAA |  | Activity at pH 3 without inhibitor (taken as 100%) ([5]; FIG. 12, means of 3 measurements±SD): 28.8±3.8 pmoles L-leucine produced/min/mg protein; Hydrolysis of bovine haemoglobin by supernatant from pCY330-33 ([5]; pH 3.0, 42° C., means of 3 measurements±SD (FIG. 10)): 25.8±1.45 pmoles L-leucine/min/mg protein; Activity at pH higher than 5 ([5]; pH higher than 5): slight activity

Row | Molecule | Remaining Activity % [1] [%] | Effect on endoprotease activity of recombinant TcAP2 [2] | other results
6 | O=c1oc(Cl)c(Cl)c2ccccc12 [DCI, dichloroisocoumarin] | 90 | no effect | 
